From article PMC3818835, “What Goes around Comes around-A Comparative Study of the Influence of Chemical Modifications on the Antimicrobial Properties of Small Cyclic Peptides” (Pharmaceuticals, 2013)
In brackets after ≈: the same amount, converted by molar mass. Peptide text beside a SMILES is read from it.

Columns and labels:
eukaryotic cells = tested on: eukaryotic cells; design: method as in PMID 15248771; conditions: cited from earlier work
B. subtilis DSM 347 = type: cell-based; conditions: DSM 347, 18 h
Description: (§1) The minimal inhibitory concentration (MIC) of the cyclic hexapeptides was tested against Gram-negative E. coli DH5α and Gram-positive B. subtilis DSM 347 using a microdilution technique in 96 well microtiter plates as described previously. Briefly, cells from an overnight culture were inoculated 1:100 in LB medium, grown to mid log phase (OD600 0.4 ± 0.1) and adjusted to 5 × 10^5 cells/well. Final peptide concentrations ranged from 0.05 µM to 100 µM (2-fold dilutions) and were tested in triplicates in at least three independent experiments. The MIC was determined after 18 h of incubation at 37 °C, 180 rpm being the lowest peptide concentration at which no visible bacterial growth can be detected photometrically (A600, Safire Microplate Reader, Tecan, Männedorf, Germany).

E. coli DH5α = type: cell-based; conditions: 18 h
Description: as §1

[1] = Hydrophobicity: retention time tR by reversed phase HPLC; type: physicochemical; conditions: chromatographic, RP-HPLC ProntoSil 300-5-C18-H (250 × 4.6 mm, 5 µm); peptide 1 mg/mL in phase A (0.1% TFA in water); B 0.1% TFA in 80% acetonitrile; linear gradient 5%–95% B over 40 min at 22 °C; used as a measure of hydrophobicity
Description: The retention time tR of the cyclic hexapeptides was determined by HPLC on a Jasco LC-2000Plus using a ProntoSil 300-5-C18-H column (250 × 4.6 mm, 5 µm) (Bischoff Chromatography). Peptide concentration was 1 mg/mL in mobile phase A (0.1% TFA in deionized water), mobile phase B consisted of 0.1% TFA in 80% acetonitrile in deionized water. For chromatographic analyses a linear gradient of 5%–95% phase B over 40 min at 22 °C was applied.
To investigate the influence of fluorescent label modification and amino acid substitution on the hydrophobicity/amphipathicity of the cyclic hexapeptide derivatives, we determined the retention time tR by reversed phase HPLC (Figure 2). The method monitors the retention of compounds by the hydrophobic HPLC stationary phase. Differences in tR reflect differences in the effective hydrophobicity of the molecule which is related to the intrinsic hydrophobicity of the individual residues and their ability to form hydrophobic domains for interaction with the HPLC matrix. At the same time, hydrophilic residues will locate at the opposite side of the molecule. Reduction in the size or positioning of cationic residues next to the hydrophobic molecular surface area would reduce amphipathicity. tR-measurements have successfully been applied to characterize amphipathic helices, β-structured peptides and different sets of our small cyclic R-, W-rich peptides.

human erythrocytes = type: cell-based; conditions: pH 7.4
Description: The lytic effect of selected peptides upon human erythrocytes was determined as described before. Briefly, cells were washed thoroughly in Tris buffer (10 mM Tris, 150 mM NaCl, pH 7.4). Suspensions with 2.5 × 10^8 cells/mL were incubated with peptides at a final concentration of 100 µM for 30 min at 37 °C. After centrifugation, 0.6% NH4OH was added to an aliquot of the supernatant and hemoglobin absorption (A) was measured at 540 nm (Jasco V-550). Whole cell suspensions exposed to NH4OH were used as positive control (A100%) and preparations without peptide served as negative control (A0%), respectively. Data were collected in three independent experiments.

MIC B. subtilis DSM 347 (B. subtilis DSM 347): 3 µM (≈ 2.96 µg/mL)
MIC E. coli DH5α (E. coli DH5α): 3 µM (≈ 2.96 µg/mL)
Retention Time tR [1]: 17.67 min
Structure (SMILES): N=C(N)NCCC[C@@H]1NC(=O)[C@H](CCCNC(=N)N)NC(=O)[C@H](Cc2c[nH]c3ccccc23)NC(=O)[C@H](Cc2ccccc2)NC(=O)[C@H](Cc2c[nH]c3ccccc23)NC(=O)[C@H](CCCNC(=N)N)NC1=O [cWFW] (cyclo(FWRRRW); ring closure inferred)
Toxicity towards eukaryotic cells (eukaryotic cells): no toxicity towards eukaryotic cells could be detected
Hemolysis at 100 µM (human erythrocytes): 4%
